Reference: patent publication US20240067600A1, “SMALL MOLECULE INHIBITORS OF THE MITOCHONDRIAL PERMEABILITY TRANSITION PORE (mtPTP)” (UNIVERSITY OF KANSAS, priority 2014, published 2024)
Read-outs that look alike come from different tables or passages of the source.

Key:
Format in all cases: biochemical, mice
[1] = tested on: Mitochondrial Permeability Transition Pore; experiment: Mitochondrial swelling absorbance assay
Procedure: Mitochondrial Swelling (Hit Validation, Confirmatory Assay, Concentration-Response, AID No. 720722)
Assay buffer: 250 mM sucrose, 10 mM MOPS-Tris, 0.01 mM EGTA-Tris, 1.0 mM phosphoric acid-Tris, pH 7.4 • Solution 1. 5.0 mM glutamate and 2.5 mM malate in Assay buffer. • Solution 2. 80-120 μM CaCl2) depending on mitochondrial activity in Solution 1. Note: Concentration of Ca^2+ in the assay is dependent upon the activity of the isolated mitochondria which is determined via a calcium titration just before each screening batch. A Ca^2+ concentration is used that allows for the arrival at a 2:1 window at the 20 minute time period. • Solution 3. 1% DMSO in Solution 2. • Solution 4. 2.0 mM EGTA-Tris, pH 7.4 in Solution 3. • Solution 5. 0.5 mg/mL mitochondria in Assay Buffer.
Protocol Summary: • 1. Freshly isolate mitochondria, prepare solutions according to the recipes in the reagent section • 2. Dispense 100 μL of Solution 4 to Columns 1-2 and Solution 3 Columns 11-12 (positive and negative controls, respectively) of the 96-well clear assay plate (Falcon 353072) • 3. Dispense 200 μL of Solution 1 to Row A Columns 3-10. • 4. Next, dispense 100 μL of Solution 3 to Rows B-H Columns 3-10. • 5. Add 4 μL of 5 mM test compounds in DMSO to Row A Columns 3-10, perform 1:2 serial dilutions Row A to H Columns 3-10. • 6. Finally, dispense 100 μL of Solution 5 in all wells. The reaction starts. • 7. Keep the plate at room temperature for 20 minutes and then read absorbance at 540 nm on MultiSkan EX, Thermo Scientific.
Concentration-Response Assay to Identify Compounds that Inhibit Mitochondrial Swelling (SAR Assay AID No. 743359)
Assay buffer: 250 mM sucrose, 10 mM MOPS-Tris, 0.01 mM EGTA-Tris, 1.0 mM phosphoric acid, pH 7.4 • Solution 1. 5.0 mM glutamate and 2.5 mM malate in Assay Buffer. • Solution 2. 100-120 μM CaCl2) depending on mitochondrial activity in Solution 1. Note: Concentration of Ca^2+ in the assay is dependent upon the activity of the isolated mitochondria which is determined via a calcium titration just before each screening batch. A Ca^2+ concentration is used that allows for the arrival at a 2:1 window at the 20 minute time period. • Solution 3. 1% DMSO in Solution 2. • Solution 4. 2.0 mM EGTA-Tris, pH 7.4 in Solution 3. • Solution 5. 0.5 mg/mL mitochondria in Assay Buffer.
Protocol Summary: • 1. Freshly isolate mitochondria, prepare solutions according to the recipes in the Reagent Section. • 2. Dispense 100 μL of Solution 4 to Columns 1-2 and Solution 3 Columns 11-12 (positive and negative controls, respectively) of the 96-well clear assay plate (Falcon 353072). • 3. Dispense 200 μL of Solution 1 to Row A Columns 3-10. • 4. Next, dispense 100 μL of Solution 3 to Rows B-H Columns 3-10. • 5. Add 4 μL of 5 mM test compounds in DMSO to Row A Columns 3-10, perform 1:2 serial dilutions Row A to H Columns 3-10. • 6. Finally, dispense 100 μL of Solution 5 in all wells. The reaction starts. • 7. Keep the plate at room temperature for 20 minutes and then read absorbance at 540 nm on MultiSkan EX, Thermo Scientific.

[2] = tested on: IMM potential; experiment: Rhodamine 123 (Rh123) uptake counterscreen;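 also: isolated mitochondria respiring on glutamate plus malate in sucrose MOPS-Tris buffer at pH 7.4, Rh123 added with the organelles, compounds tested across a twofold dilution series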
Procedure: Assay buffer: 250 mM sucrose, 10 mM MOPS-Tris, 0.01 mM EGTA-Tris, 1.0 mM phosphoric acid-Tris, pH 7.4 • Solution 1. 5.0 mM glutamate and 2.5 mM malate in Assay Buffer. • Solution 2. 1% DMSO in Solution 1. • Solution 3. 0.8 μM FCCP (the stock 40 μM in DMSO) in Solution 1. • Solution 4. 0.5 mg/mL mitochondria and 0.8 μM Rh123 in Assay Buffer.
Protocol Summary: • 1. Freshly isolate mitochondria, prepare solutions according to the recipes in the Reagent Section. • 2. Dispense 100 μL of Solution 3 to Columns 1-2 and Solution 2 Columns 11-12 (positive and negative controls, respectively) of the 96-well black assay plate (Falcon 353376). • 3. Dispense 200 μL of Solution 1 to Row A Columns 3-10. • 4. Next, dispense 100 μL of Solution 2 to Rows B-H Columns 3-10. • 5. Add 4 μL of 10 mM test compounds in DMSO to Row A Columns 3-10, perform 1:2 serial dilutions Row A to H Columns 3-10. • 6. Finally, dispense 100 μL of Solution 4 in all wells. The reaction starts. • 7. Keep the plate at room temperature for 5 minutes and then read fluorescence (excitation 485 nm, emission 538 nm) on Fluoroskan Ascent FL, Thermo Scientific.
Concentration-Response Counterscreen Assay to Identify Compounds that Prevent Mitochondrial Swelling Via Interference with the IMM Potential (SAR Assay AID No. 743361)
Assay buffer: 250 mM sucrose, 10 mM MOPS-Tris, 0.01 mM EGTA-Tris, 1.0 mM phosphoric acid-Tris, pH 7.4 • Solution 1. 5.0 glutamate and 2.5 mM malate in Assay Buffer. • Solution 2. 1% DMSO in Solution 1. • Solution 3. 0.8 μM FCCP (the stock 40 μM in DMSO) in Solution 1. • Solution 4. 0.5 mg/mL mitochondria and 0.8 μM Rh123 in Assay Buffer.

[3] = tested on: mtPTP; experiment: Calcium retention capacity (CRC) assay on isolated mitochondria; details: for Calcium Retention Capacity (CRC/CRC0 at 12.5 μM): 12.5 μM compound; for Calcium Retention Capacity (CRC/CRC0) at 1.56 μM: 1.56 μM compound
Procedure: Assay buffer: 250 mM sucrose, 10 mM MOPS-Tris, 0.01 mM EGTA-Tris, 1.0 mM phosphoric acid-Tris, pH 7.4. • Solution 1. 10 mM glutamate and 5 mM malate in Assay buffer. • Solution 2. 1% DMSO in Solution 2. • Solution 3. 0.5 mg/mL mitochondria and 1.0 μM Calcium Green-5N in Assay Buffer. • Solution 4. 0.25 mM CaCl2).
Protocol Summary: • 1. Freshly isolate mitochondria, prepare solutions according to the recipes in the Reagent Section. • 2. Dispense 100 μL of Solution 2 to Columns 1-2 (negative control) of the 96-well black assay plate (Falcon 353376). • 3. Dispense 200 μL of Solution 1 to Row A Columns 3-12. • 4. Next, dispense 100 μL of Solution 2 to Rows B-H Columns 3-12. • 5. Add 4 μL of 5 mM test compounds in DMSO to Row A Columns 3-12, perform 1:2 serial dilutions Row A to H Columns 3-12. • 6. Finally, dispense 100 μL of Solution 3 in all wells. • 7. Experiment starts. Read Calcium Green-5N fluorescence (excitation 485 nm, emission 538 nm) and perform a train of 4 μL Solution 4 additions with Fluoroskan Ascent FL, Thermo Scientific.

[4] = Table 1, read-out: Rh123 uptake (EC50)
[5] = Table 2, average of >3 experiments ± SEM
[6] = Table 2, average of >3 experiments ± SEM, read-out: Rh123 Assay EC50

SMILES	EC50 ([1]; Table 1, average ± SEM)	EC50 [2, 4]	Calcium Retention Capacity (CRC/CRC0 at 12.5 μM) ([3]; Table 1, average ± SEM)	EC50 [1, 5]	EC50 [2, 6]	Calcium Retention Capacity (CRC/CRC0 at 12.5 μM) [3, 5]	Calcium Retention Capacity (CRC/CRC0) at 1.56 μM ([3]; Table 1, average ± SEM)	EC50 ([1]; Table 1, unit inferred, average ± SEM)
O=C(Nc1cc(Cl)ccc1F)c1cc(-c2ccc(F)c(O)c2)on1	0.009 ± 0.0014 µM	> 100 µM	10.07 ± 0.69	–	–	–	–	–
Cc1cc(Cl)cc(NC(=O)c2cc(-c3ccc(F)c(O)c3)on2)c1	0.819 ± 0.0589 µM	> 100 µM	6.08 ± 0.52	–	–	–	–	–
Cc1cnc(Cl)cc1NC(=O)c1cc(-c2ccc(F)c(O)c2)on1	2.19 ± 0.15 µM	> 100 µM	3.48 ± 0.51	–	–	–	–	–
COc1ccc(Cl)cc1C(=O)Nc1ccc(CCN2CCOCC2)cc1	9 ± 0.404 µM	> 100 µM	1.23 ± 0.02	–	–	–	–	–
COc1ccc(Cl)cc1C(=O)Nc1ccc(CCN2CCCCC2)cc1	2.68 ± 0.166 µM	> 100 µM	1.51 ± 0.01	–	–	–	–	–
COc1ccc(Cl)cc1C(=O)Nc1ccc(CN2CCN(C(=O)OC(C)(C)C)CC2)cc1	9.24 ± 0.86 µM	> 100 µM	1.33 ± 0.06	–	–	–	–	–
COc1ccc(Cl)cc1C(=O)Nc1ccc(CN2CCOCC2)cc1	8.12 ± 0.388 µM	> 100 µM	1.20 ± 0.00	–	–	–	–	–
COc1ccc(Cl)cc1C(=O)Nc1ccc(CN2CCCCC2)cc1	1.54 ± 0.101 µM	> 100 µM	1.80 ± 0.00	–	–	–	–	–
COc1ccc(Cl)cc1C(=O)Nc1cccc(CN2CCNCC2)c1	3.27 ± 0.15 µM	> 100 µM	1.52 ± 0.06	–	–	–	–	–
O=C(Nc1ccc(CN2CCCCC2)cc1)c1cccc(OCc2ccccc2)c1	0.885 ± 0.116 µM	51.2 µM	3.54 ± 0.28	–	–	–	–	–
O=C(Nc1ccc(CN2CCCCC2)cc1)c1cccc(Cl)c1	16 ± 1.58 µM	> 100 µM	1.16 ± 0.02	–	–	–	–	–
O=S(=O)(Nc1ccc(CCN2CCCCC2)cc1)c1cccc(Cl)c1	38.7 ± 3.67 µM	> 100 µM	1.12 ± 0.02	–	–	–	–	–
CN1CCN(c2ccc(NS(=O)(=O)c3cccc(Cl)c3)cc2)CC1	37.5 ± 3.63 µM	> 100 µM	1.05 ± 0.03	–	–	–	–	–
CN1CCN(Cc2ccc(NS(=O)(=O)c3cc(Cl)cc(Cl)c3)cc2)CC1	29.2 ± 2.1 µM	> 100 µM	1.10 ± 0.02	–	–	–	–	–
O=S(=O)(Nc1ccc(CCN2CCCCC2)cc1)c1cc(Cl)cc(Cl)c1	25.6 ± 1.8 µM	> 100 µM	1.17 ± 0.04	–	–	–	–	–
O=S(=O)(Nc1ccc(CCN2CCNCC2)cc1)c1cc(Cl)cc(Cl)c1	21.4 ± 0.983 µM	> 100 µM	1.09 ± 0.05	–	–	–	–	–
CN1CCN(c2ccc(NS(=O)(=O)c3cc(Cl)cc(Cl)c3)cc2)CC1	21.7 ± 1.08 µM	> 100 µM	1.11 ± 0.03	–	–	–	–	–
O=S(=O)(Nc1ccc(CCN2CCCCC2)cc1)c1ccc(F)c(Cl)c1	29.1 ± 2.92 µM	> 100 µM	1.07 ± 0.03	–	–	–	–	–
COc1ccc(NC(=O)c2cc(-c3cccc(O)c3)on2)cc1Cl	0.189 ± 0.028 µM	> 100 µM	3.26 ± 0.32	–	–	–	–	–
CC1(C)CCN(CCCC(=O)c2ccc(Br)cc2)CC1	18 ± 1.33 µM	> 100 µM	1.10 ± 0.05	–	–	–	–	–
CC(C)C1CCN(CCCC(=O)c2ccc(Br)cc2)CC1	10 ± 7.78 µM	64.8 ± 4.19 µM	1.16 ± 0.05	–	–	–	–	–

SMILES	EC50 ([1]; Table 1, average ± SEM)	EC50 [2, 4]	Calcium Retention Capacity (CRC/CRC0 at 12.5 μM) ([3]; Table 1, average ± SEM)	EC50 [1, 5]	EC50 [2, 6]	Calcium Retention Capacity (CRC/CRC0 at 12.5 μM) [3, 5]	Calcium Retention Capacity (CRC/CRC0) at 1.56 μM ([3]; Table 1, average ± SEM)	EC50 ([1]; Table 1, unit inferred, average ± SEM)
C[C@@H]1CCC[C@H](C)N1CCCC(=O)c1ccc(Br)cc1	46 ± 1.36 µM	> 100 µM	1.01 ± 0.02	–	–	–	–	–
O=C(Nc1ccc(CN2CCCCC2)cc1)c1cc(F)cc(OCc2ccccc2)c1 [Entry 1]	–	–	–	0.521 ± 0.046 µM	58.6 ± 2.9 µM	10.8 ± 0.6	–	–
O=C(Nc1ccc(CN2CCCCC2)cc1)c1ccc(F)c(OCc2ccccc2)c1 [Entry 2]	–	–	–	0.372 ± 0.028 µM	> 100 µM	13.3 ± 1.0	–	–
O=C(Nc1ccc(CN2CCCCC2)cc1)c1cc(OCc2ccccc2)ccc1Cl [Entry 3]	–	–	–	3.6 ± 0.17 µM	75.7 ± 1.8 µM	2.26 ± 0.11	–	–
O=C(Nc1ccc(CN2CCOCC2)cc1)c1ccc(Cl)c(OCc2ccccc2)c1 [Entry 4]	–	–	–	0.403 ± 0.031 µM	> 100 µM	8.81 ± 0.39	–	–
CN1CCN(Cc2ccc(NC(=O)c3ccc(Cl)c(OCc4ccccc4)c3)cc2)CC1 [Entry 5]	–	–	–	0.423 ± 0.028 µM	49.6 ± 4.3 µM	14.1 ± 1.1	–	–
O=C(Nc1cccc(CN2CCNCC2)c1)c1ccc(Cl)c(OCc2ccccc2)c1 [Entry 6]	–	–	–	0.286 ± 0.027 µM	42.6 ± 3.1 µM	16.1 ± 1.5	–	–
O=C(Nc1ccc(CN2CCNCC2)cc1)c1ccc(Cl)c(OCc2ccccc2)c1 [Entry 7]	–	–	–	0.206 ± 0.021 µM	46.4 ± 3.2 µM	18.3 ± 1.3	–	–
O=C(Nc1ccc(CN2CCCCC2)cc1)c1ccc(Cl)c(OCc2cccc(Cl)c2)c1 [Entry 8]	–	–	–	1.19 ± 0.33 µM	23.2 ± 1.3 µM	6.50 ± 1.20	–	–
O=C(Nc1ccc(CN2CCCCC2)cc1)c1ccc(Cl)c(OCc2ccccc2Cl)c1 [Entry 9]	–	–	–	4 ± 0.66 µM	> 100 µM	2.37 ± 0.41	–	–
O=C(Nc1ccc(CN2CCCCC2)cc1)c1ccc(Cl)c(OCc2ccc(Cl)cc2)c1 [Entry 10]	–	–	–	1.24 ± 0.39 µM	24.7 ± 1.5 µM	5.91 ± 0.38	–	–
O=C(Nc1ccc(CN2CCCCC2)cc1)c1ccc(Cl)c(OCc2ccccc2F)c1 [Entry 11]	–	–	–	1.39 ± 0.17 µM	> 100 µM	2.59 ± 0.54	–	–
O=C(Nc1ccc(CN2CCCCC2)cc1)c1ccc(Cl)c(OCc2ccc(F)cc2)c1 [Entry 12]	–	–	–	0.49 ± 0.08 µM	28.6 ± 1.1 µM	10.1 ± 0.8	–	–
COc1ccc(/C=C/C(=O)Nc2cccc(Cl)c2)cc1O [Entry 13]	–	–	–	0.073 ± 0.007 µM	> 100 µM	7.67 ± 0.35	–	–
COc1ccc(-c2cc(C(=O)Nc3cc(Cl)cc(Cl)c3)no2)cc1O [drawing 126]	0.277 ± 0.001 µM	> 100 µM	–	–	–	–	1.17 ± 0.11 (at 1.56 μM)	–
O=C(Nc1cccc(Cl)c1Cl)c1cc(-c2ccc(F)c(O)c2)on1 [drawing 136]	0.0554 ± 0.0041 µM	> 100 µM	9.37 ± 0.65	–	–	–	–	–
O=C(Nc1cc(Cl)cc(Cl)c1)c1cc(-c2ccc(F)c(O)c2)on1 [drawing 140]	–	> 100 µM	7.14 ± 0.69	–	–	–	–	0.0756 ± 0.0092 µM
Cc1c(Cl)cccc1NC(=O)c1cc(-c2ccc(F)c(O)c2)on1 [drawing 141]	0.00089 ± 0.000141 µM	> 100 µM	–	–	–	–	12.14 ± 0.55 (at 1.56 μM)	–
COc1ccc(/C=C/C(=O)Nc2cccc(Cl)c2)cc1O [drawing 143]	0.125 ± 0.0071 µM	> 100 µM	11.05 ± 1.35	–	–	–	–	–
COc1ccc(Cl)cc1C(=O)Nc1ccc(CCN2CCNCC2)cc1 [drawing 145]	5.85 ± 0.344 µM	> 100 µM	1.37 ± 0.02	–	–	–	–	–
